From ChEMBL document CHEMBL3608219, “New geranylated flavanones from the fruits of Paulownia catalpifolia Gong Tong with their anti-proliferative activity on lung cancer cells A549” (Bioorg Med Chem Lett, 2015)

Assays:
A549 [1] = experiment: Antiproliferative activity against human A549 cells by MTT assay; format: functional, cell-based
A549 [2] = experiment: Cell cycle arrest in human A549 cells assessed as accumulation at S phase at 10 uM after 24 hrs by flow cytometry analysis (reference value: 16.23 +/- 1.73%); format: functional
A549 [3] = experiment: Cell cycle arrest in human A549 cells assessed as accumulation at G1 phase at 10 uM after 24 hrs by flow cytometry analysis (reference value: 68.78 +/- 2.43%); format: functional
A549 [4] = experiment: Cell cycle arrest in human A549 cells assessed as accumulation at G2/M phase at 10 uM after 24 hrs by flow cytometry analysis (reference value: 14.18 +/- 1.03%); format: functional

| IC50 (A549 [1]) | SMILES | Activity (A549 [2]) | Activity (A549 [3]) | Activity (A549 [4]) |
| --- | --- | --- | --- | --- |
| 22.1 µM | COc1cc(C2CC(=O)c3c(cc(O)c(C/C=C(\C)CCCC(C)(C)O)c3O)O2)cc(O)c1O (configuration not stated) | – | – | – |
| 23.7 µM | COc1cc(C2CC(=O)c3c(O)cc(O)c(C/C=C(\C)CCCC(C)(C)O)c3O2)cc(O)c1O (configuration not stated) | – | – | – |
| 18.7 µM | C=C1C(=O)[C@]23[C@H](O)[C@H]1CC[C@H]2[C@@]12CO[C@]3(O)[C@@H](O)[C@@H]1C(C)(C)CC[C@@H]2O [ORIDONIN] | – | – | – |
| 8.9 µM | CC(C)=CCC/C(C)=C\Cc1c(O)c(-c2c(O)c(C/C=C(/C)CCC=C(C)C)c3c(c2O)C(=O)CC(c2ccc(O)c(O)c2)O3)c(O)c2c1OC(c1ccc(O)c(O)c1)CC2=O (configuration not stated) | 5.05% | 88.88% | 5.05% |
